The test system of the assay is AKR/Lw mice, AKR lymphoma ip, median survival T/C. The assay can be described thus: NCI In Vivo Anticancer Drug Screen. Data for tumor model Lymphoma AKR (Transplanted) (intraperitoneal) in AKR/Lw mice. Particulars: endpoint: median survival time, higher = longer survival. Here is the method:
The antitumor activity of compounds was measured in mice bearing transplantable tumors. Survival or tumor size were measured and the results are expressed as the measurement made in the treated group (T) divided by the measurement made in the vehicle treated control group (C). The tumor model used in this assay is Lymphoma AKR (Transplanted) (intraperitoneal) in AKR/Lw mice

SMILES strings stand for the structures. Several values for one entry are separate records, joined by “and”; a condition that tells them apart may be missing. Identical values can stand only once. Toxic doses and inconclusive results are not listed.

Regarding `C1CN1c1nc(N2CC2)nc(N2CC2)n1`, the T/C (dose: 0.01 mg/kg/injection, schedule: Q04DX003 (ip), vehicle: saline) is 102 % of control; the T/C (dose: 0.02 mg/kg/injection, schedule: Q01DX009 (ip), vehicle: saline) is 115 % of control; the T/C (dose: 0.02 mg/kg/injection, schedule: Q04DX003 (ip), vehicle: saline) is 111 % of control; the T/C (dose: 0.03 mg/kg/injection, schedule: Q01DX009 (ip), vehicle: saline) was 109 % of control; the T/C (dose: 0.03 mg/kg/injection, schedule: Q04DX003 (ip), vehicle: saline) was 86 % of control and 102 % of control; the T/C (dose: 0.05 mg/kg/injection, schedule: Q01DX009 (ip), vehicle: saline) is 115 % of control. Also, the T/C was 100 % of control (dose: 0.05 mg/kg/injection, schedule: Q04DX003 (ip), vehicle: saline); 101 % of control and 109 % of control (dose: 0.06 mg/kg/injection, schedule: Q01DX009 (ip), vehicle: saline); 93 % of control and 97 % of control and 107 % of control (dose: 0.06 mg/kg/injection, schedule: Q04DX003 (ip), vehicle: saline); 113 % of control (dose: 0.1 mg/kg/injection, schedule: Q04DX003 (ip), vehicle: saline); 106 % of control (dose: 0.12 mg/kg/injection, schedule: Q01DX001 (ip), vehicle: saline); 115 % of control and 122 % of control (dose: 0.2 mg/kg/injection, schedule: Q04DX003 (ip), vehicle: saline). Besides, the T/C reads like this: (dose: 0.25 mg/kg/injection, schedule: Q01DX001 (ip), vehicle: saline) 106 % of control and 111 % of control; (dose: 0.3 mg/kg/injection, schedule: Q04DX003 (ip), vehicle: saline) 121 % of control; (dose: 0.35 mg/kg/injection, schedule: Q04DX003 (ip), vehicle: saline) 120 % of control; (dose: 0.37 mg/kg/injection, schedule: Q01DX001 (ip), vehicle: saline) 105 % of control; (dose: 0.6 mg/kg/injection, schedule: Q01DX009 (ip), vehicle: saline) 116 % of control; (dose: 0.75 mg/kg/injection, schedule: Q01DX001 (ip), vehicle: saline) 105 % of control and 115 % of control. The T/C is, setting by setting: (dose: 0.8 mg/kg/injection, schedule: Q04DX003 (ip), vehicle: saline) 188 % of control; (dose: 1.2 mg/kg/injection, schedule: Q01DX009 (ip), vehicle: saline) 93 % of control; (dose: 1.5 mg/kg/injection, schedule: Q01DX001 (ip), vehicle: saline) 123 % of control; (dose: 2.5 mg/kg/injection, schedule: Q01DX009 (ip), vehicle: saline) 93 % of control; (dose: 15.0 micrograms/kg/injection, schedule: Q01DX009 (ip), vehicle: saline) 113 % of control; (dose: 25.0 micrograms/kg/injection, schedule: Q01DX009 (ip), vehicle: saline) 102 % of control. Besides, the T/C is 115 % of control (dose: 30.0 micrograms/kg/injection, schedule: Q01DX009 (ip), vehicle: saline); 111 % of control (dose: 50.0 micrograms/kg/injection, schedule: Q01DX009 (ip), vehicle: saline); 116 % of control (dose: 100.0 micrograms/kg/injection, schedule: Q01DX009 (ip), vehicle: saline); 107 % of control (dose: 120.0 micrograms/kg/injection, schedule: Q01DX009 (ip), vehicle: saline); 105 % of control (dose: 250.0 micrograms/kg/injection, schedule: Q01DX009 (ip), vehicle: saline).
Turning to `NCCCC(=O)O`, the T/C was 93 % of control (dose: 100.0 mg/kg/injection, schedule: Q01DX001 (ip), vehicle: saline); 95 % of control (dose: 200.0 mg/kg/injection, schedule: Q01DX001 (ip), vehicle: saline); 95 % of control (dose: 400.0 mg/kg/injection, schedule: Q01DX001 (ip), vehicle: saline).
Take `O=NN(CCCl)C(=O)NC1CCCCC1`: the T/C runs as follows: (dose: 2.0 mg/kg/injection, schedule: Q04DX003 (ip), vehicle: Klucel (hydroxypropylcellulose) (HPC)) 102 % of control; (dose: 2.5 mg/kg/injection, schedule: Q01DX001 (ip), vehicle: Klucel (hydroxypropylcellulose) (HPC)) 109 % of control; (dose: 4.4 mg/kg/injection, schedule: Q04DX003 (ip), vehicle: Klucel (hydroxypropylcellulose) (HPC)) 106 % of control; (dose: 5.0 mg/kg/injection, schedule: Q01DX001 (ip), vehicle: Klucel (hydroxypropylcellulose) (HPC)) 111 % of control; (dose: 5.0 mg/kg/injection, schedule: Q04DX004 (ip), vehicle: Klucel (hydroxypropylcellulose) (HPC)) 100 % of control; (dose: 6.25 mg/kg/injection, schedule: Q07DX003 (ip), vehicle: saline) 109 % of control. Further, the T/C (dose: 6.7 mg/kg/injection, schedule: Q04DX003 (ip), vehicle: Klucel (hydroxypropylcellulose) (HPC)) is 122 % of control; the T/C (dose: 7.0 mg/kg/injection, schedule: Q01DX001 (ip), vehicle: Klucel (hydroxypropylcellulose) (HPC)) is 165 % of control; the T/C (dose: 10.0 mg/kg/injection, schedule: Q04DX003 (ip), vehicle: Klucel (hydroxypropylcellulose) (HPC)) is 115 % of control; the T/C (dose: 10.0 mg/kg/injection, schedule: Q04DX004 (ip), vehicle: Klucel (hydroxypropylcellulose) (HPC)) is 100 % of control; the T/C (dose: 12.5 mg/kg/injection, schedule: Q07DX003 (ip), vehicle: saline) is 96 % of control and 115 % of control and 118 % of control; the T/C (dose: 25.0 mg/kg/injection, schedule: Q01DX001 (ip), vehicle: saline with Tween-80) is 159 % of control. Further, the T/C (dose: 25.0 mg/kg/injection, schedule: Q01DX001 (ip), vehicle: saline) is 106 % of control and 115 % of control; the T/C (dose: 25.0 mg/kg/injection, schedule: Q07DX003 (ip), vehicle: saline) was 106 % of control and 109 % of control; the T/C (dose: 50.0 mg/kg/injection, schedule: Q01DX001 (ip), vehicle: saline with Tween-80) is 365 % of control; the T/C (dose: 50.0 mg/kg/injection, schedule: Q01DX001 (ip), vehicle: saline) is 115 % of control; the T/C (dose: 100.0 mg/kg/injection, schedule: Q01DX001 (ip), vehicle: saline with Tween-80) is 218 % of control.
For the compound `COC(=O)C1(C)CCC(c2ccc(OC)cc2)C(CC(=O)O)C1=O` (stereo unspecified), the T/C is, setting by setting: (dose: 50.0 mg/kg/injection, schedule: Q04DX003 (ip), vehicle: Klucel (hydroxypropylcellulose) (HPC)) 100 % of control; (dose: 100.0 mg/kg/injection, schedule: Q01DX001 (ip), vehicle: Klucel (hydroxypropylcellulose) (HPC)) 100 % of control; (dose: 100.0 mg/kg/injection, schedule: Q04DX003 (ip), vehicle: Klucel (hydroxypropylcellulose) (HPC)) 100 % of control; (dose: 200.0 mg/kg/injection, schedule: Q01DX001 (ip), vehicle: Klucel (hydroxypropylcellulose) (HPC)) 113 % of control; (dose: 400.0 mg/kg/injection, schedule: Q01DX001 (ip), vehicle: Klucel (hydroxypropylcellulose) (HPC)) 105 % of control.
As for `COc1ccc(C2c3cc4c(c(OC)c3CC3OCC(=O)C32)OCO4)cc1OC` (stereo unspecified), the T/C by setting is: (dose: 25.0 mg/kg/injection, schedule: Q01DX009 (ip), vehicle: Klucel (hydroxypropylcellulose) (HPC)) 110 % of control; (dose: 50.0 mg/kg/injection, schedule: Q01DX009 (ip), vehicle: Klucel (hydroxypropylcellulose) (HPC)) 103 % of control.

These data come from PubChem BioAssay AID190 (DTP/NCI, 2004).
